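Five compound concentrations were applied to cells in 96-well plates for 48 hours; endpoints were derived by simple linear interpolation of the resulting dose-response curve. Here, GI50 denotes the concentration required for 50% inhibition of growth.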 Activity calls are given as the source filed them. No stated cut-off is given here; in the data, active = GI50 up to about 1.1 µM and inactive = higher.
Legend:
Experiment in all cases: NCI anticancer screen, dose series, 48 h
IGROV-1 = tested on: IGROV-1
CAKI-1 = tested on: CAKI-1
NCI-H23 = tested on: NCI-H23
OVCAR-4 = tested on: OVCAR-4
SK-MEL-2 = tested on: SK-MEL-2
HOP-92 = tested on: HOP-92
OVCAR-5 = tested on: OVCAR-5
PC-3 = tested on: PC-3
786-0 = tested on: 786-0
RXF 393 = tested on: RXF 393
RPMI-8226 = tested on: RPMI-8226
SN12C = tested on: SN12C
NCI-H226 = tested on: NCI-H226
ACHN = tested on: ACHN
SF-295 = tested on: SF-295
MDA-N = tested on: MDA-N
TK-10 = tested on: TK-10
MDA-MB-231 = tested on: MDA-MB-231
KM12 = tested on: KM12

Measured: GI50

O=[N+]([O-])c1nccn1CCCNc1ccnc2cc(Cl)ccc12
inactive: IGROV-1 7.71 µM | CAKI-1 > 5.93 µM | NCI-H23 5.52 µM | OVCAR-4 6.41 µM | SK-MEL-2 4.29 µM | HOP-92 > 7.98 µM | OVCAR-5 14.4 µM | PC-3 5.09 µM | 786-0 3.76 µM | RXF 393 4.26 µM | RPMI-8226 4.34 µM | SN12C 3.3 µM | NCI-H226 3.27 µM | ACHN 4.75 µM | SF-295 3.8 µM | MDA-N 7.29 µM | TK-10 3.53 µM | MDA-MB-231 6.59 µM | KM12 5.37 µM

CCOC(=O)C(C/C=C/CO)N(C)C(=O)OC(C)(C)C (stereo not given)
inactive: IGROV-1 > 100 µM | CAKI-1 > 100 µM | NCI-H23 > 100 µM | OVCAR-4 > 100 µM | SK-MEL-2 > 100 µM | HOP-92 > 100 µM | OVCAR-5 > 100 µM | PC-3 > 100 µM | 786-0 > 100 µM | RXF 393 > 100 µM | RPMI-8226 > 100 µM | SN12C > 100 µM | NCI-H226 > 100 µM | ACHN > 100 µM | SF-295 > 100 µM | MDA-N > 100 µM | TK-10 > 100 µM | MDA-MB-231 > 100 µM | KM12 > 100 µM

Cc1ccc(C(=O)C2C=C(c3ccc(C)cc3)SC3C=CCC32)cc1 (stereo not given)
inactive: IGROV-1 19.6 µM | CAKI-1 18.9 µM | NCI-H23 24.2 µM | OVCAR-4 30.5 µM | SK-MEL-2 16.1 µM | HOP-92 17.8 µM | OVCAR-5 18.4 µM | PC-3 18.1 µM | 786-0 19.5 µM | RXF 393 21 µM | RPMI-8226 16.3 µM | SN12C 17.2 µM | NCI-H226 27.2 µM | ACHN 20.5 µM | SF-295 19.1 µM | MDA-N 14.8 µM | TK-10 25.3 µM | MDA-MB-231 25.1 µM | KM12 15 µM

C/C(=N\Nc1ccccc1Br)c1cccc(/C(C)=N/Nc2ccccc2Br)n1
inactive: IGROV-1 80.7 µM | CAKI-1 49 µM | NCI-H23 > 100 µM | OVCAR-4 > 100 µM | SK-MEL-2 39 µM | HOP-92 81.5 µM | OVCAR-5 > 100 µM | PC-3 42.8 µM | 786-0 84.5 µM | RXF 393 19.7 µM | RPMI-8226 > 100 µM | SN12C > 100 µM | NCI-H226 > 100 µM | ACHN > 100 µM | SF-295 34.4 µM | MDA-N 31.7 µM | TK-10 69.7 µM | MDA-MB-231 43.4 µM | KM12 52.6 µM

Nc1c2c(nc3cc(F)c(F)cc13)CCC2
inactive: IGROV-1 45.7 µM | CAKI-1 47.5 µM | NCI-H23 99.5 µM | OVCAR-4 58.2 µM | SK-MEL-2 > 100 µM | HOP-92 38.3 µM | OVCAR-5 49.9 µM | PC-3 39.8 µM | 786-0 45.6 µM | RXF 393 33.5 µM | RPMI-8226 43.9 µM | SN12C 43.2 µM | NCI-H226 33.3 µM | ACHN 32.6 µM | SF-295 41.2 µM | MDA-N 49 µM | TK-10 26.4 µM | MDA-MB-231 56.1 µM | KM12 50.2 µM

C=C1c2nc3ccccc3n2C=C(c2ccccc2)N1c1ccccc1
inactive: IGROV-1 > 100 µM | CAKI-1 81.7 µM | NCI-H23 33.7 µM | OVCAR-4 16.4 µM | SK-MEL-2 73.5 µM | HOP-92 50.4 µM | OVCAR-5 > 100 µM | PC-3 34.3 µM | 786-0 > 100 µM | RXF 393 22.4 µM | RPMI-8226 17.3 µM | SN12C 92.5 µM | NCI-H226 57.4 µM | ACHN 49.4 µM | SF-295 32.1 µM | MDA-N 39.8 µM | TK-10 49 µM | MDA-MB-231 > 100 µM | KM12 24.8 µM

Nc1ncnc2c1nc(Cl)n2[C@@H]1O[C@@H]2COP(=O)(O)O[C@H]2[C@H]1O [TOCLADESINE]
inactive: IGROV-1 24.5 µM | CAKI-1 3.61 µM | NCI-H23 16.5 µM | OVCAR-4 16.6 µM | SK-MEL-2 > 99.8 µM | HOP-92 12.2 µM | OVCAR-5 27.7 µM | PC-3 8.3 µM | 786-0 8.85 µM | RXF 393 7.35 µM | RPMI-8226 6.47 µM | SN12C 12.6 µM | NCI-H226 6.18 µM | ACHN 5.05 µM | SF-295 51.2 µM | MDA-N 10.9 µM | TK-10 15.1 µM | MDA-MB-231 21.5 µM | KM12 75.5 µM

C=C1C(=O)OC2C1C(OC(=O)/C(C)=C/C)CC(O)(CCl)C1C(O)C=C(C)C21O (stereo not given)
inactive: IGROV-1 14.9 µM | CAKI-1 4.14 µM | NCI-H23 13.8 µM | OVCAR-4 14.2 µM | SK-MEL-2 21 µM | HOP-92 8.93 µM | OVCAR-5 16.7 µM | PC-3 21.7 µM | 786-0 4.88 µM | RXF 393 5.93 µM | RPMI-8226 5.68 µM | SN12C 14.4 µM | NCI-H226 19.1 µM | ACHN 5.79 µM | SF-295 53 µM | MDA-N 14.9 µM | TK-10 14.1 µM | MDA-MB-231 15.7 µM | KM12 20.5 µM

CCOC(=O)C1=[N+]([O-])OC2=C(O)CCCC21 (stereo not given)
inactive: IGROV-1 > 100 µM | CAKI-1 > 100 µM | NCI-H23 > 100 µM | OVCAR-4 > 100 µM | SK-MEL-2 > 100 µM | HOP-92 > 100 µM | OVCAR-5 > 100 µM | PC-3 > 100 µM | 786-0 > 100 µM | RXF 393 > 100 µM | RPMI-8226 > 100 µM | SN12C > 100 µM | NCI-H226 > 100 µM | ACHN > 100 µM | SF-295 > 100 µM | MDA-N > 100 µM | TK-10 > 100 µM | MDA-MB-231 > 100 µM | KM12 > 100 µM

O=C(CCOS(=O)(=O)CF)N1CCN(C(=O)CCOS(=O)(=O)CF)CC1
inactive: IGROV-1 > 69.5 µM | CAKI-1 5.36 µM | NCI-H23 29.6 µM | OVCAR-4 > 100 µM | SK-MEL-2 > 100 µM | HOP-92 35.6 µM | OVCAR-5 > 100 µM | PC-3 > 100 µM | 786-0 28.4 µM | RXF 393 59.3 µM | RPMI-8226 > 46.5 µM | SN12C 35.1 µM | NCI-H226 > 88.7 µM | ACHN 17.1 µM | SF-295 32.6 µM | MDA-N > 100 µM | TK-10 > 100 µM | MDA-MB-231 > 100 µM | KM12 > 100 µM
